Results reported in patent publication US6787564B2, “Optically active clausenamides, process of the preparation thereof, pharmaceutical composition containing the same and their medical use” (Institute of Materia Medica, Chinese Academy of Medical …, priority 2002, dated 2004).

Legend:
[1] = test system: animals with anisodine-induced memory impairment; test: memory impairment induced by anisodine in water maze test; format: in vivo; details: anisodine + drug 10 mg/kg
Description: (§1) This invention used one trial avoidance task—step-down and step-through tests and water maze to compare the improving memorial effects of (±), (−) clausenamide. The drugs were given orally once to animals before experiment in step-down and step-through tests. The water maze test lasted for 5 days in succession. The results were expressed as latency and errors number.

rats = test: mossy fiber sprouting in fascia dentata and hippocampal CA3 region; format: in vivo; details: 8 and 40 mg·kg^−1 orally daily for 10 days; adult rat
Description: 2. […] This is morphological basis for levoclausenamide to incnease synaptic transmission (see FIGS. 1 and 2).

Ach, ChAT = test: Ach content and ChAT activity in cortex, hippocampus and striatum; details: in vivo
calcineurin = calcineurin activity in the cortical and hippocampal tissue; details: without HFS; Nimodipine 2 nmol; mean ± S.D., n = 5; control 7.8 ± 0.6
Description: The rats were anaesthetized with urethane carbonate. The recording and stimulating electrodes were made from Teflon coated stainless steel wires. The bipolar stimulating electrode was sterotaxically placed in the entorhinal cortex to stimulate the perforant path, and the evoked potential was extracellular recorded from the dentate gyrus granule cell layer of ipsilateral. The population spike (PS) is served as an indication of granule cell's excitation. Long term potentiation (LTP) was induced by a 200 Hz high frequency stimulation 5×single square wave pulses of 0.2 ms duration. The drug or vehicle (DMSO) were injected into lateral cerebral ventricle in a 5 μl volume over a 5 min period via a Hamilton syringe.

animals = test: nootropic action overall: step-down, step-through and water maze tests; format: in vivo; details: in vivo
Procedure: This invention used one trial avoidance task—step-down and step-through tests and water maze to compare the improving memorial effects of (±), (−) clausenamide.
The drugs were given orally once to animals before experiment in step-down and step-through tests. The water maze test lasted for 5 days in succession. The results were expressed as latency and errors number.
The effective dose of piracetam was 500 mg.kg^−1.

[2] = test system: Bax α high expressing PC12 cells; test: mitochondrial membrane potential in 6-OHDA treated Bax α high expressing PC12 cells; format: cell-based; details: 6-OHDA 12 hours, without drug 24.6
Description: (§2) Obviously, the increased mitochondrial membrane potential is considered to be one of the antiapoptotic mechanisms of (−) Clausenamide. The increased mitochondrial complex I and complex IV activity may account for the increased mitochondrial membrane potential. The Bax α protein may induce apoptosis by affecting enzyme activities of the mitochondrial electron transfer chain. And the mitochondrial complex I and complex IV could be the targeting points of the Bax α protein.

Bcl-2 = Bcl-2 expression level by western blot in 6-OHDA treated Bax α high expressing PC12 cells; format: cell-based; details: 10^−7M, 10^−6M; 24 hours after 6-OHDA treatment
Description: (§3) It means that Bax α expression may promote the production of reactive oxygen species. The antiapoptotic effect of (−) clausenamide may be attributed to its reduction of the mitochondrial MDA level and the increase of mitochondrial GSH level. The increased mitochondrial GSH may be the result of the increased Bcl-2 level. As Bcl-2 itself is not an antioxidant, it may promote the closing of PT pores, and form heterodimers with Bax α and protect the mitochondria from injury and thus reduce the production of reactive oxygen, species.

[3] = test system: animals with anisodine-induced memory impairment; test: step-through test, memory impairment induced by anisodine; format: in vivo
Description: as §1

[4] = test system: Bax α high expressing PC12 cells; test: mitochondrial GSH and MDA level in 6-OHDA treated Bax α high expressing PC12 cells; format: cell-based; details: for mitochondrial GSH level: without drug 9.84±1.20; for mitochondrial MDA level: without drug 2.46±0.19
Description: as §3

zif/268 = test: protein biosyntheses of mice brain and zif/268 expression; details: mouse, in vivo
A β 25-35 treated rats = test: Morris water maze, A β 25-35 induced impairment of memory; format: in vivo
Description: Pathological features of Alzheimer's disease (AD) include extensive neuronal loss and the presence of numerous neurofibrillary tangles and senile plaques in the brain. The senile plaques contain amyloid fibrils derived from a 39-43 amino acids peptide referred to as β-amyloid or A β which can produce neurotoxicity. A β 25-35 poccesses the similar neurotoxicity and ability of self-aggregation as A β 1-42. Administrated aggregated A β 25-35 into rat's lateral cerebral ventricle induced memory impairment in Morris water maze.
With increasing of training days, the initial heading angle became small. On the 3th day, the initial heading angle of A β group was larger than control. […] (see Tab.3)
There are four strategies for finding platform in Morris water maze: random, circle, taxis and line. In the beginning of training the search strategies for finding target is mainly circle and random, with the increasing of training, the percentage of the two strategies declined gradually, Beginning from the 3th day, declining speed in control and (−) clausenamide group was faster than A β,(+) clausenamide and piracetam groups.

isolated mitochondria = test: Bax α induced cytochrome c release from isolated mitochondria; format: biochemical
Description: Studies have shown that the widely existing cytochrome c plays an important role in inducing apoptosis. Cytochrome c is the water soluble cytochrome within the cell and existed at the outside of the mitochondria inner membrane. Cytochrome c could be released into the cytoplasm from the mitochondrial to activate the apoptotic program. This study first purified the His-tagged Bax protein from the bacteria by the Metal Affinity method. When added to the isolated mitochondria, it caused a significant decrease of mitochondrial cytochrome c content (74.43±5.69 ug/mg, pro vs 50.2±3.65 ug/mg pro, p<0.01). […] It means that (−) clausenamide may also act directly on mitochondrial itself to exert its antiapoptotic activity independent Bcl-2. The exact mechanism of action still remains to be determined.

mitochondrial complex I = mitochondrial complex I activity in Bax α high expressing PC12 cells; format: cell-based; details: without drug 1.44±0.16
Description: as §2

apoptosis = test: three apoptotic models; format: cell-based; details: 10^−7−10^−5 mol/l
BDNF = BDNF protein expression in cortical neurons and hippocampal pyramide cells; format: in vivo, rats; details: 8, 40 mg·kg^−1 orally daily for 10 days
potassium channel = potassium channel blockade (nootropic mechanism)
[5] = anisodine + drug 10 mg/kg (Tab 7)
[6] = anisodine + drug 50 mg/kg (Tab 7)

CN1C(=O)[C@@H](O)[C@H](c2ccccc2)[C@@H]1[C@@H](O)c1ccccc1 [(−)clausenamide, 3S, 4R, 5R, 6S (−) Levoclausenamide]
Errors number [1]: 9.4 ± 5.9 | mossy fiber sprouting in the fascia dentate and stratum lucidum (rats): dose-dependently increased | Ach content in cortex, hippocampus and striatum (Ach, ChAT): increased | ChAT activity in cortex, hippocampus and striatum (Ach, ChAT): increased | calcineurin activity, Hippocampal tissue (calcineurin): 10.4 ± 0.5 (μmol Pi)/hr/μ g protein | nootropic action, times more potent than (±) clausenamide (animals): 5-10 times | nootropic action, times more potent than piracetam (animals): 50-100 times | mitochondrial membrane potential ([2]; 10^−6M): 56.0±5.0 | mitochondrial membrane potential ([2]; 10^−7M): 30.7±3.3 | Bcl-2 expression level (Bcl-2): significantly increase the Bcl-2 expression level | Latencies, Step-through ([3]; 5 mg/kg oral once): 47.9 ± 90 s | Error number, Step-through ([3]; 5 mg/kg oral once, 0.9% Nacl + anisodine 12.7 ± 4.6): 5.7 ± 4.7 | Error number, Step-through ([3]; 10 mg/kg oral once (Table 4)): 6.5 ± 5.0 | Latencies, Step-through ([3]; 10 mg/kg oral once (Table 4)): 59.4 ± 91 s | Error number, Step-through ([3]; 50 mg/kg oral once (Table 4)): 7.1 ± 3.6 | Latencies, Step-through ([3]; 50 mg/kg oral once (Table 4)): 17.1 ± 12.4 s | Error number [3, 5]: 6.7 ± 11.0 | Latencies [3, 5]: 138.2 ± 86.7 s | Error number [3, 6]: 5.4 ± 4.1 | Latencies [3, 6]: 140.6 ± 96.4 s | mitochondrial GSH level ([4]; 10^−5M): 17.78±1.04 nmol/mg pro | mitochondrial MDA level ([4]; 10^−6M): 1.54±0.13 nmol/mg pro | mitochondrial GSH level ([4]; 10^−6M): 15.10±0.95 nmol/mg pro | mitochondrial GSH level ([4]; 10^−7M, 6-OHDA treated): 12.29±0.99 nmol/mg pro | mitochondrial MDA level ([4]; 10^−7M): 1.76±0.17 nmol/mg pro | protein biosyntheses of mice brain (zif/268): increased | zif/268 mRNA and protein expression (zif/268): promoted | spatial learning and memory impairment induced by aggregated A β 25-35 (A β 25-35 treated rats; 8,40 mg·kg^−1 daily for 8 days from the 8th day after icv 15 nmol aggregated A β 25-35): significantly ameliorated | initial heading angle on the 3th day (in words) (A β 25-35 treated rats; (−),(+) clausenamide 8 and 40 mg.kg^−1, piracetam 400 mg·kg^−1, vs A β group): significantly reduced the angle | latency for finding the platform, 3th to 5th day (A β 25-35 treated rats; (−),(+) clausenamide 8 and 40 mg·kg^−1, piracetam 400 mg.kg^−1, vs A β group): shorter than that of A β group | initial heading angle, training day 1 (A β 25-35 treated rats; A β 25-35 + drug at 8 mg/kg): 89.7 ± 29.4 | initial heading angle, training day 2 (A β 25-35 treated rats; A β 25-35 + drug at 8 mg/kg): 72.3 ± 19.8 | initial heading angle, training day 3 (A β 25-35 treated rats; A β 25-35 + drug at 8 mg/kg): 46.5 ± 21.2 | initial heading angle, training day 4 (A β 25-35 treated rats; A β 25-35 + drug at 8 mg/kg): 30.4 ± 14.8 | initial heading angle, training day 5 (A β 25-35 treated rats; A β 25-35 + drug at 8 mg/kg): 17.6 ± 9.5 | initial heading angle, training day 1 (A β 25-35 treated rats; A β 25-35 + drug at 40 mg/kg): 101.5 ± 24.3 | initial heading angle, training day 2 (A β 25-35 treated rats; A β 25-35 + drug at 40 mg/kg): 83.5 ± 21.8 | initial heading angle, training day 3 (A β 25-35 treated rats; A β 25-35 + drug at 40 mg/kg): 51.2 ± 18.7 | initial heading angle, training day 4 (A β 25-35 treated rats; A β 25-35 + drug at 40 mg/kg): 28.4 ± 13.2 | initial heading angle, training day 5 (A β 25-35 treated rats; A β 25-35 + drug at 40 mg/kg): 20.7 ± 8.7 | appearance of taxis and line search strategies (A β 25-35 treated rats; from the 3th training day): increased markedly | mitochondrial cytochrome c content after Bax α induced release (isolated mitochondria; 10^−5M, Bax alone 50.2±3.65): 67.95±7.6 μg/mg pro | mitochondrial cytochrome c content after Bax α induced release (isolated mitochondria; 10^−6M, Bax alone 50.2±3.65): 61.7±5.3 μg/mg pro | mitochondrial cytochrome c content after Bax α induced release (isolated mitochondria; 10^−7M, His-tagged Bax alone 50.2±3.65, no Bax 74.43±5.69): 58.73±3.77 μg/mg pro | mitochondrial complex I activity (mitochondrial complex I; 10^−5M): 2.16±0.2 umol/mg pro/min | mitochondrial complex I activity (mitochondrial complex I; 10^−7M): 1.57±0.12 umol/mg pro/min | apoptosis in three apoptotic models (apoptosis): inhibited apoptosis significantly | BDNF protein expression in the cortical neurons and pyramide cells in the hippocampus (BDNF): dose-dependently increased | potassium channel action (potassium channel): potassium channel blocker
